The record followed here is patent US20130058957A1, “DENDRITIC CELL IMMUNORECEPTOR AGONIST” (THE UNIVERSITY OF TOKYO, priority 2010, published 2013).

Assay [1] deals with bone marrow cell-derived osteoclasts (OC formation). Put plainly: In vitro osteoclast formation, count of TRAP-positive multinucleate cells. The class given is cell-based, mouse. Conditions: for OC differentiation in the presence of carbohydrate chain: carbohydrate chain 10 ng/mL, FIG. 8e; for OC formation (number of TRAP-positive MNCs): KS-II 100 ng/mL, FIGS. 8c, 8d. As for the experimental part: Nonadherent bone marrow cells were seeded in a well plate (in a 24-well plate at 5×10^5 cells/well or in a […] at 3×10^6 cells/well) and were cultured in α-MEM (Gibco BRL) containing 10% FCS (manufactured by Biowest AG) and 10 ng/mL M-CSF (manufactured by R&D Systems, Inc.). After two days, nonadherent cells (including lymphocytes) were washed away, and remaining adherent cells were used as bone marrow-derived macrophages (BMMs). These osteoclast precursor cells (pOCs) were further cultured in the presence of 100 ng/mL of soluble RANKL (manufactured by PeproTech Inc. or Oriental Yeast Co., Ltd.) and 10 ng/mL of M-CSF to obtain osteoclasts. After three days, the osteoclasts were fixed in 10% neutral buffered formalin for three minutes, further kept in a mixture of ethanol/acetone (50:50 v:v) for 1 minute and subsequently incubated in a TRAP staining solution (Naphthol AS-MX phosphate: 5 mg, N,N-dimethylformamide: 0.5 mL, fast red violet LB salt: 30 mg, 0.1 M sodium acetate buffer (pH 5.0) containing 50 mM sodium tartrate: 50 mL) at room temperature. The number of TRAP-positive multinucleate cells (MNCs having three or more nuclei) was counted.
(§1) In order to investigate the influence of GM-CSF on osteoclast formation, mouse GM-CSF enzyme immunoassay (manufactured by PerSeptive Biosystems, Inc.), recombinant GM-CSF (manufactured by PeproTech Inc.), and anti-mouse GM-CSF neutralizing antibody (manufactured by R&D Systems, Inc.) were used. Furthermore, in the proliferation assay, pOCs were seeded (in a 96-well plate at 1×10^4 cells/well) and cultured in the presence of 10 ng/mL M-CSF only or M-CSF and 100 ng/mL RANKL or 20 ng/mL GM-CSF for three days. Subsequently, the cells were exposed to [^3H]TdR (0.5 μCi/mL) overnight.

Assay [2] deals with osteoclast precursor cells (pOCs). In words: Osteoclast differentiation with hybridoma supernatant or KS-II, count of TRAP-positive osteoclasts. The class given is cell-based. The settings on record: KS-II 10 ng/mL; M-CSF 10 ng/mL + RANKL 100 ng/mL, three days; versus untreated; FIG. 13. As for the experimental part: Furthermore, activities of the above-mentioned antibodies on osteoclast formation were evaluated using the activity of keratan sulfate as an indicator. Nonadherent bone marrow cells were seeded in a well plate (a 96-well plate at 1×10^5 cells/well) and were cultured in α-MEM (Gibco BRL) containing 10% FCS (manufactured by Biowest AG) and 10 ng/mL M-CSF (manufactured by R&D Systems, Inc.). After two days, the nonadherent cells (including lymphocytes) were washed away, and the remaining adherent cells were used as bone marrow-derived macrophages (BMMs). These osteoclast precursor cells (pOCs) were further cultured in the presence of 100 ng/mL of soluble RANKL (manufactured by PeproTech Inc. or Oriental Yeast Co., Ltd.) and 10 ng/mL of M-CSF to obtain osteoclasts. During the culturing, the hybridoma supernatant (one-tenth amount) or keratan sulfate (KS-II: 10 ng/mL) was added to the culture medium. After three days, the cells were collected and stained with TRAP. The number of TRAP-positive osteoclasts (having three or more nuclei) was counted. Untreated cells were used as a control (NT).

In assay [3] the target is T1, DCIR (Mus musculus, UniProt Q9QZ15).
T1 construct: immunoblot analysis for ITIM phosphorylation and SHP-1 recruitment in pOC lysate after KS-II stimulation; endogenous in cells; host or cells: mouse bone-marrow-derived osteoclast precursor cells (pOC)
T1 sequence (Q9QZ15 1-238): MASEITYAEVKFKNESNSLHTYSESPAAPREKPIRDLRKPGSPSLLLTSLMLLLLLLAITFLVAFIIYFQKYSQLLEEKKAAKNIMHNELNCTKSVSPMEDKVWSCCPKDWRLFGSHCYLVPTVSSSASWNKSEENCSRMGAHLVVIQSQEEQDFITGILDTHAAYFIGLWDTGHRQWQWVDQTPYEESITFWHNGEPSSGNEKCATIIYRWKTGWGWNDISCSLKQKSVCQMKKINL
Put plainly: Immunoprecipitation/immunoblot analysis of DCIR activation in pOC lysate after KS-II stimulation. The settings on record: immunoprecipitated with anti-DCIR antibody, FIG. 8f. The class given is cell-based. The text has this:
In immunoprecipitation analysis, Protein G-Sepharose 4 Fast Flow (manufactured by GE Healthcare), mouse DCIR-specific antibody (320511: manufactured by R&D Systems, Inc.), phospho-Tyr (4G10: manufactured by Millipore), and SHP-1 (HG213: Upstate) were used. As the secondary antibody, a rabbit IgG-specific HRP-linked polyclonal antibody (manufactured by Cell Signaling) or a rat IgG-specific HRP-linked polyclonal antibody (manufactured by Zymed) was used.
(In general: A western blot detects proteins with antibodies after separation by electrophoresis.)

Assay [4] deals with TNF-α. Put plainly: TNF-α production in CpG-containing culture, measured by ELISA. The class given is cell-based. Conditions: CpG 1 μM, 12 hours; KS-II 10 ng/mL, versus CpG alone; FIG. 12. As to the method:
The anti-DCIR antibodies derived from hybridomas prepared in Example 4 were evaluated for binding ability to DCIR. Since DCIR has been reported to participate in suppression of immunoreaction (Nature Medicine, 2008, vol. 14, no. 2: 176-180), the DCIR-binding ability of each antibody was evaluated using expression of tumor necrosis factor α (TNF-α), which is an inflammatory cytokine, as a standard.
The hybridoma prepared in Example 4 was cultured in a culture medium containing CpG (concentration: 1 μM) for 12 hours, and the culture supernatant was collected. Separately, CpG ODN 1668 (Operon Technologies, Inc.) was cultured in the same medium or a medium further containing keratan sulfate (KS-II: 10 ng/mL), and the culture supernatant was collected. As a control, the cells were cultured in a CpG-free culture medium (NT). The TNF-α amount in each supernatant was measured by ELISA.
(In general: An ELISA detects its analyte on a solid surface through an enzyme-linked reagent.)

Assay [5] concerns calvarial OBs. Put plainly: Mineralization of calvarial osteoblasts (alizarin red and ALP staining of osteogenic culture). Type of assay: cell-based, mouse. The settings on record: FIG. 10f. As for the experimental part:
Primary osteoblasts were isolated from the calvaria of a new born mouse. The calvaria was washed with PBS and was digested in α-MEM containing 0.25% trypsin and 2 mg/mL collagenase P (manufactured by Roche) at 37° C. for 20 minutes. The supernatant was removed, and the cells were further digested for 60 minutes.
In order to induce osteogenesis, primary osteoblasts (in a 96-well plate at 2×10^4 cells/well, in a 24-well plate at 5×10^4 cells/well, or in a 6-well plate at 2×10^5 cells/well) were cultured to confluent, and the culture medium was replaced by a culture medium containing 10 mM β-glycerophosphate and 50 μg/mL ascorbic acid. The culture medium was replaced three times in 21 days.
The osteoblasts cultured for 21 days were stained with alizarin red, von Kossa, and alkaline phosphatase (ALP).
The culture solution was removed from the osteoblasts cultured for 21 days by using PBS, and the osteoblasts were fixed with 3.7% formalin solution (Nacalai Tesque, Inc.) for 10 minutes. […]
Primary osteoblasts were cultured in a 96-well plate for 21 days and were measured with a TRACP & ALP Assay Kit (TaKaRa Bio Inc.). […] The reaction was terminated with 50 μL of a reaction terminating solution, and subsequently the activity was measured with MICROPLATE READER MTP-300 (CORONA ELECTRIC Co., Ltd.) at OD405.

Assay [6] relates to OPG/RANKL ratio. Put plainly: Real-time RT-PCR of OPG/RANKL ratio in calvarial OBs. The class given is cell-based. Conditions: WT mouse-derived OBs only (not KO); FIGS. 10k, 10l. As for the experimental part:
Semi-quantitative RT-PCR and real-time RT-PCR were slightly modified, but basically performed in accordance with the methods described in Nature Medicine, 2008, vol. 14, no. 2: 176-180 and Arthritis Res. Ther., 2006, 8, R100, 1-13. Total RNA was prepared by a typical acid guanidinium thiocyanate-phenol-chloroform method or a method using Sepasol-RNA I Super (manufactured by Nacalai Tesque, Inc.). The prepared RNA was reverse transcribed with SuperScript III First-Strand Synthesis System for RT-PCR (manufactured by Invitrogen) to prepare cDNA.
The real-time RT-PCR was performed using primers shown in Table 1, SYBR Green qPCR kit (manufactured by Invitrogen), and iCycler (manufactured by Bio-Rad Laboratories, Inc.).

For assay [7], the target named is T2, recombinant mouse DCIR (mDCIR) (Mus musculus, UniProt Q9QZ15).
T2 construct: containing an extracellular domain (99th to 238th residues) was expressed as an inclusion body in E. coli; made in house
T2 sequence (Q9QZ15 99-238): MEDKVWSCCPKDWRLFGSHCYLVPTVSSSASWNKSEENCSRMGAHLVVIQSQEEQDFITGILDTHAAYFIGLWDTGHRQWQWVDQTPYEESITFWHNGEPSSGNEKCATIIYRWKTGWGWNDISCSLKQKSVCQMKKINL
Put plainly: Carbohydrate chain binding assay by ELISA. Conditions: KS-II from bovine articular cartilage immobilised on ELISA plate; FIG. 8b. As to the method:
Carbohydrate chain binding assay was performed in accordance with the method described in J. Bio. Chem., 2004, 279, 29043-29049. KS-II was diluted to 2 mg/mL with 100 mM sodium acetate (pH 5.5) and was oxidized with 2 mM sodium metaperiodate on ice for 1 hour to obtain a reactive aldehyde group. After further dilution, KS-II was incubated on a Covalink ELISA plate at 4° C. overnight and was reduced with 0.3% sodium cyanoborohydride at room temperature for 1.5 hours for covalent bonding. The plate was washed and was blocked with 2% bovine serum albumin (fraction V: manufactured by Sigma Corp.) at 37° C. for two hours. A recombinant mouse DCIR (mDCIR) containing an extracellular domain (99th to 238th residues) was expressed as an inclusion body in E. coli BL21 (DE3) pLysS using a pGMT7 plasmid and the […] was refolded by a typical dilution method. The mDCIR was incubated on the blocked and refolded plate at 4° C. overnight. Binding of protein was detected using anti-DCIR antibodies (a mixture of 320507 and 320511: manufactured by R&D Systems, Inc.) and HRP-linked rat IgG (manufactured by Zymed) in the presence of a TMB substrate (manufactured by Dako).

For assay [8], the system named is osteoclast precursor cells (pOCs). Put plainly: Proliferation assay using pOC after GM-CSF stimulation. Type of assay: cell-based, mouse. Conditions: Dcir−/− pOCs; M-CSF 10 ng/mL and GM-CSF 20 ng/mL. As to the method:
as §1

For `CC(=O)N[C@H]1C(O)O[C@H](CO)[C@@H](O[C@@H]2O[C@H](CO)[C@H](O)[C@H](O)[C@H]2O)[C@@H]1O` (some centres unmarked) [LacNAc, N-acetyllactosamine], the “OC differentiation in the presence of carbohydrate chain” value (shortened to “OC differentiation in the presence”) in assay [1] is given as “not influenced”.

With dermatan sulfate, the “OC differentiation in the presence” value in assay [1] is recorded as “not influenced”.

Take keratan sulfate-II [KS-II]: the “differentiation to osteoclast (TRAP-positive, three or more nuclei)” value in assay [2] is “suppressed”. For the same molecule, the “phosphorylation of immunoreceptor tyrosine-based inhibitory motif (ITIM) in DCIR” value in assay [3] was “concentration-dependently accelerates”. Besides, the “recruitment of tyrosine phosphatase SHP-1 in DCIR” value in assay [3] was “concentration-dependently accelerates”. In addition, the entries for the “OC formation (number of TRAP-positive MNCs)” value in assay [1] (Dcir−/− cell culture) and in assay [1] (wild-type (WT) bone marrow cell culture) were “did not inhibit” and “considerably inhibited”, respectively. The TNF-α production result in assay [4] is listed as “suppressed”. The “mineralization of OBs” value in assay [5] (Dcir−/− OBs) was “does not suppress”; in assay [5] (WT OBs), “suppresses”. Also, the OPG/RANKL ratio result in assay [6] is given as “decreases”. Besides, the “binding of recombinant mouse DCIR to KS-II” value in assay [7] is “concentration-dependently binds”.

With chondroitin sulfate A, in assay [1], the “OC differentiation in the presence” value is “not influenced”.

B1: GM-CSF: recombinant mouse GM-CSF (manufactured by PeproTech Inc.) (protein, UniProt P01587 18-141, looked up)
Granulocyte-macrophage …: APTRSPITVTRPWKHVEAIKEALNLLDDMPVTLNEEVEVVSNEFSFKKLTCVQTRLKIFEQGLRGNFTKLKGALNMTASYYQTYCPPTPETDCETQVTTYADFIDSLKTFLTDIPFECKKPGQK
B1: the “proliferation of pOCs” value in assay [8] is recorded as “significantly increased”.
